Test [1] deals with A549, HT1376, MDA-MB-231, HeLa and BEAS-2B cell lines. The experiment in a line: Western blotting of LC3 I and LC3 II for autophagy level. It counts as cell-based. To be noted: chloroquine treated together with rapamycin, 4 hours; all the cells (FIG. 1). The protocol: After 4 hours, the cells were washed two times with 1×PBS, followed by a western blotting was carried out to investigate the protein levels of LC3 I and LC3 II (hereinafter referred to as, LC3 I/II). In order to perform the western blotting, the cells were first lysed with RIPA buffer with 1/ml protease inhibitor cocktail in the drug-treated cells. The whole cell extracts were fractionated by SDS-PAGE, and transferred to a nitrocellulose membrane using a dry blot (Bio-Rad). The membranes were incubated with TBST (10 mM Tris, pH 8.0, 150 mM NaCl, 0.5% Tween 20) containing 5% nonfat milk for 60 minutes, then washed once with TBST. The membrane was treated with rabbit antibody against human LC3 I/II (abcam) and stirred overnight at 4° C. The membrane was washed 3 times for 10 min with TBST, then was incubated for 1 hour with the HRP-labeled antibody (mouse anti-rabbit IgG-HRP, Santa Cruz, Inc.) against the rabbit antibody isolated from a mouse as a secondary antibody (1:3000 dilution). After washing three times with TBST and developing according to the protocol of the manufacturer of the ECL system (Amersham Biosciences), an image was detected with a luminescent image analyzer (LAS100 Plus, Fujifilm, Japan).

Test [2] has as its system pEGFP-LC3-transfected MDA-MB-231 cells treated with EBSS. Description: Detection of autophagy cells in the early stages of autophagy induction, fluorescence microscopy. It counts as cell-based. Conditions: for fluorescence signal on early autophagy cells: Rhodamine B-labeled peptide 10 μmol/L, 4° C. 1 hour, EBSS 2 hours (FIG. 6); for site of binding on autophagy-induced cells: rhodamine-labeled peptide, single MDA-MB-231 cell (FIGS. 7A and 7B). On the procedure: (§1) pEGFP-LC3-transfected MDA-MB-231 cells were cultured on an eight-chamber slide and were treated with EBSS (Earl's balanced salt solution) for 2 hours to induce autophagy. Cells were then washed with PBS and treated with 10 μmol/L of each solution of Rhodamine B-labeled AtgPep-1 to AtgPep-4 (provided in PBS diluted) and incubated at 4° C. for 1 hour. Then 1% BSA was treated at 4° C. for 1 hour. The cells were fixed with 4% paraformaldehyde for 5 minutes. The cells were then stained with […] (DAPI) and mounted on a fluorescence microscope (Zeiss, Oberkochen, Germany).

In test [3] the test system is HeLa cell, Chang cell and BEAS-2B cell. Description: Detection of autophagy cells in other cell types, fluorescence microscopy. It counts as cell-based. Conditions: rhodamine B labeled, BEAS-2B cells (FIG. 8). On the procedure:
as §1
In order to verify that the peptide of the present invention acts also on other tissues or cells other than the MDA-MB-231 cell line, autophagy was induced in several kinds of cells (derived from different tissues) and their detection ability was confirmed using AtgPep-1 (CKHHLGAIC; SEQ ID NO: 1) and AtgPep-2 (CQQTKNYYC: SEQ ID NO: 2) which represent particularly high signals among AtgPep-1 to AtgPep-4. The experimental method is the same as described above.

The test system of test [4] is autophagy cells (rapamycin-treated HeLa or MDA-MB-231 cells). Description: Immunofluorescent staining of phage clones on rapamycin-treated cells. It counts as cell-based. Conditions: phage clones displaying the peptide; rapamycin 4 hr; anti-M13 immunofluorescence (FIG. 4). The protocol:
A phage clone with high specificity for binding to autophagy cells was selected through phage binding ELISA for autophagy cells. More specifically, For binding of each phage clone in vitro, cells were seeded at 2×10^4 cells/well in a 96-well culture plate and cultured in 80˜90% confluence. And then cells were treated with rapamycin in serum-free medium for 4 hours, then washed with PBS and blocked with 1% BSA for 30 minutes at room temperature. The treated cells were then incubated with each phage clone (1×10^9 pfu/well). The pool of a phage library was used as a control. After 1 hour incubation at 4° C. with a phage clone, the cells were washed again with PBS and fixed with […] (in DMEM). Next, HRP-conjugated anti-M13 phage monoclonal antibody (1:3000 dilution, NEB) was added to M13 phage and incubated at room temperature for one hour. The cells were washed three times with PBS, and the TMB substrate (100/well) was treated for 2-10 min for color development and the reaction was terminated by treatment with 2M H2SO4. The final color product was measured at 450 nm wavelength in microtitration plate reader (Sunrise, Tecan Austria) using a windows based program XFluor4.
Further, after the phage clones selected for the rapamycin-treated cells were cultured as described above, immunofluorescent staining was performed using a mouse monoclonal antibody to M13 phage (mouse anti-M13 monoclonal antibody, diluted 1:3000) and Alexa 549-labeled antibody (Alexa 549-conjugated anti-mouse IgG antibody, abcam) against the mouse antibody as a secondary antibody in a conventional manner to confirm the attachment specificity and effect of the phage clones, and used for screening. […] The four peptide sequences of the clones is as follows; CKHHLGAIC (AtgPep-1, SEQ ID NO: 1), CQQTKNYYC (AtgPep-2, SEQ ID NO: 2), CNTGSPYEC: SEQ ID NO: 3 (AtgPep-3, SEQ ID NO: 3), CPPNTDRSC (AtgPep-4, SEQ ID NO: 4). […] It was confirmed that the phage clones displaying AtgPep-1 to AtgPep-4 specifically bind to autophagy cells respectively. In particular, it was confirmed that the phage clones specifically bind to the autophagy cells even in the initial (4 hr) autophagy state.

In test [5] the test system is MDA-MB-231 tumor tissue after rapamycin autophagy induction. The experiment in a line: Microscopy of tumor frozen sections for peptide target signal. Type of test: in vivo, nude mouse. To be noted: flamma 675-labeled peptide; five hours after the peptide injection; frozen sections (FIG. 10). The protocol: After five hours of the peptide injection, the image were acquired. Then the mice were sacrificed and the tumors were separated and frozen sections of tissues were prepared. Six μm-thickness tumor frozen sections were stained with DAPI for nuclear staining and immunostained with LC3 antibody for autophagy induction. The signal of flamma 675 (FPR675) dye, LC3 and DAPI were observed as red, green and blue under a microscope, respectively.

The subject of test [6] is MDA-MB-231 tumor after rapamycin autophagy induction. Description: In vivo NIRF imaging of autophagy in tumor animal model. More on the design: species or system nude mouse. To be noted: flamma 675-labeled peptide, tail vein, 50 μM; 4 to 5 hours after peptide injection; rapamycin 1.5 mg per kg i.p. (FIG. 9). On the procedure: As an experiment for monitoring and imaging autophagy using a peptide probe, tumor cells were transplanted into immunodeficient nude mice to grow tumors, and animal models for experiments were constructed. The MDA-MB-231 cell (10^6 cells), which was verified in the results of FIGS. 7A and 7B of the present invention, was injected into the femoral region of the nude mouse, and it was confirmed that the size of the tumor was 80 mm^3 after 10 days. In order to induce autophagy, rapamycin was injected intraperitoneally into each mouse in an amount of 1.5 mg per kg of the mouse. Two hours after the injection of rapamycin, AtgPep-2 (CQQTKNYYC: SEQ ID NO: 2) of the present invention, labeled with flamma 675 (=FPR675, Bioact Co., Korea), a near-infrared fluorescent (NIRF) was administered to each mouse (N=5 To 7) via tail vein at a final 50 μM concentration/mouse, while being allowed to circulate along the blood for 2 hours to obtain optical and fluorescence imaging at 2 hours, 4 hours, and 5 hours after the administration of the peptide. As a control, CNSSSVDKC peptide (Control, SEQ ID NO: 10) labeled with flamma 675 was injected at the same concentration and method. NIRF imaging signals were scanned and acquired using an IVIS imaging system (Caliper Life Sciences, Massachusetts, USA).

The results in this text go back to patent US10421780B2, “Peptide for targeting autophagic cells and use thereof” (Kyungpook National University Industry-Academic Cooperation …, priority 2015, dated 2019).

Ends that are not written are not given here.

Regarding `CCN(CC)CCCC(C)Nc1ccnc2cc(Cl)ccc12` (centres unmarked) [chloroquine], the “production of LC3 II protein” value in test [1] is “further increased”.
As to “CKHHLGAIC (Artificial Amino acid sequence of AtgPep-1)”, in test [2], the “fluorescence signal on early autophagy cells” value was “strong fluorescence signals” and the “site of binding on autophagy-induced cells” value was “bound to the cell membrane of the autophagy cell”. Also, in test [3], the “targeting to autophagy cells in other cell types” value was “specifically targeted to autophagy cells regardless of cell types”. The “binding specificity of phage clones to autophagy cells” value (“binding specificity of phage clones” below) in test [4] is “high binding specificity to autophagy cells”.
Regarding “CNSSSVDKC (not fully specified; cysteine pairing not given here; also: flamma 675 label) [control peptide labeled with flamma 675, reference compound]”, the “target signal in the tumor tissue” value in test [5] is given as “target signal was not present”.
Regarding “CNTGSPYEC (Artificial Amino acid sequence of AtgPep-3)”, the “binding specificity of phage clones” value in test [4] is on record as “high binding specificity to autophagy cells”.
Same read-out and setting: the result for “CPPNTDRSC (Artificial Amino acid sequence of AtgPep-4)” reads “high binding specificity to autophagy cells”.
Turning to “CQQTKNYYC (Artificial Amino acid sequence of AtgPep-2)”, in test [6], the “tumor targeting in NIRF imaging versus control peptide” value is “significantly higher level”. Moreover, the “target signal in the tumor tissue” value in test [5] is given as “significantly higher”. In addition, in test [2], the “fluorescence signal on early autophagy cells” value is “strong fluorescence signals” and the “site of binding on autophagy-induced cells” value was “bound to the cell membrane of the autophagy cell”. For the same compound, the “targeting to autophagy cells in other cell types” value in test [3] is recorded as “specifically targeted to autophagy cells regardless of cell types”. Further, the “binding specificity of phage clones” value in test [4] was “high binding specificity to autophagy cells”.
